Test results: patent publication US9808455B2

System: extra cellular levels of acetylcholine in the prefrontal cortex
Assay: extracellular acetylcholine levels in the prefrontal cortex, preclinical studies in rats
Assay type: in vivo
Excerpt: At a mechanistic level, pharmacodynamic interactions between an acetylcholinesterase inhibitor and a 5HT6 receptor antagonist are feasible. […] Although the underlying mechanism is still unknown, it is likely due to increases in the release of acetylcholine from cholinergic neurons, On the other hand, donepezil increases the extracellular levels of acetylcholine by inhibiting the acetylcholinesterase to reduce the degradation of acetylcholine.

**Q.** With `O=S(=O)(c1ccccc1)c1cnc2c(N3CCNCC3)cccc2c1` as the compound, how does the “extra cellular levels of acetylcholine in the prefrontal cortex” value read?
**A.** small increase
